From patent US20100029619A1, “FUSED HETEROCYCLIC COMPOUND” (TAKEDA PHARMACEUTICAL COMPANY LIMTED, priority 2006, published 2010)
Counter-ions that a name gives are not always drawn.

SMILES | melting point
CC(C)(C)c1ccc(C(=O)Nc2cn3nc(-n4cnc(Br)c4)ccc3n2)cc1 [Example 147, N-[6-(4-bromo-1H-imidazol-1-yl)imidazo[1,2-b]pyridazin-2-yl]-4-tert-butylbenzamide] | 306 to 307 °C
CC(C)(C)c1ccc(C(=O)Nc2cn3cc(-c4cnc[nH]4)ccc3n2)cc1 [Example 76, 4-tert-butyl-N-[6-(1H-imidazol-5-yl)imidazo[1,2-a]pyridin-2-yl]benzamide] | 297 to 298 °C
COC(=O)C(C)(C)c1ccc(C(=O)Nc2cn3cc(-c4ccsc4)ccc3n2)cc1 [Example 24, methyl 2-methyl-2-(4-{[6-(3-thienyl)imidazo[1,2-a]pyridin-2-yl]carbamoyl}phenyl)propanoate] | 200 to 201 °C
O=C(Nc1cn2cc(Cl)ccc2n1)c1ccc(C2(C(=O)O)CCCCC2)cc1 [Example 192, 1-(4-{[(6-chloroimidazo[1,2-a]pyridin-2-yl)amino]carbonyl}phenyl)cyclohexanecarboxylic acid] | 288 °C
CC(C)(C)c1ccc(C(=O)Nc2cn3cc(-n4cccc4)ccc3n2)cc1 [Example 64, 4-tert-butyl-N-[6-(1H-pyrrol-1-yl)-imidazo[1,2-a]pyridin-2-yl]benzamide] | 274 to 275 °C
Cc1ccc2nc(NC(=O)c3ccc(C(C)(C)CCC(=O)O)cc3)cn2c1 [Example 22, 4-methyl-4-{4-[(6-methylimidazo[1,2-a]pyridin-2-yl)carbamoyl]phenyl}pentanoic acid] | 280 to 282 °C
CC(C)(C)c1ccc(C(=O)Nc2cn3cc(-n4ccnc4)ccc3n2)cn1 [Example 86, 6-tert-butyl-N-[6-(1H-imidazol-1-yl)imidazo[1,2-a]pyridin-2-yl]nicotinamide] | 242 to 245 °C
CN(C)c1ccc(C(=O)Nc2cn3cc(-n4ccnc4)ccc3n2)cc1 [Example 85, 4-dimethylamino-N-[6-(1H-imidazol-1-yl)imidazo[1,2-a]pyridin-2-yl]benzamide] | 247 to 248 °C
COC(=O)C(C)(C)c1ccc(C(=O)Nc2cn3cc(Cl)ccc3n2)cc1 [Example 30, methyl 2-{4-[(6-chloroimidazo[1,2-a]pyridin-2-yl)carbamoyl]phenyl}-2-methylpropanoate] | 245 to 246 °C
CC(C)(C(=O)O)c1ccc(C(=O)Nc2cn3cc(-c4ccoc4)ccc3n2)cc1 [Example 27, 2-methyl-2-(4-{[6-(3-furyl)imidazo[1,2-a]pyridin-2-yl]carbamoyl}phenyl)propanoic acid] | 307 to 309 °C
CC(C)(C)c1ccc(C(=O)Nc2cn3nc(NC4CCNC4)ccc3n2)cc1 (centres unmarked) [Example 170, 4-tert-butyl-N-{6-[(pyrrolidin-3-yl)amino]imidazo[1,2-b]pyridazin-2-yl}benzamide] | 264 to 265 °C
CC(C)(C)c1ccc(C(=O)Nc2cn3nc(NCc4ccncc4)ccc3n2)cc1 [Example 159, 4-tert-butyl-N-{6-[(pyridin-4-ylmethyl)amino]imidazo[1,2-b]pyridazin-2-yl}benzamide] | 222 to 223 °C
CCC(=O)NCC(C)(C)c1ccc(C(=O)Nc2cn3cc(Cl)ccc3n2)cc1 [Example 126, N-(6-chloroimidazo[1,2-a]pyridin-2-yl)-4-[1,1-dimethyl-2-(propionylamino)ethyl]benzamide] | 225 to 227 °C
CC(C)(CNC(=O)c1c[nH]cn1)c1ccc(C(=O)Nc2cn3cc(C(F)(F)F)ccc3n2)cc1 [Example 456, N-[2-methyl-2-(4-{[6-(trifluoromethyl)imidazo[1,2-a]pyridin-2-yl]carbamoyl}phenyl)propyl]-1H-imidazole-4(5)-carboxamide] | 174 to 176 °C
CC(C)(CCC#N)c1ccc(C(=O)Nc2cn3cc(Cl)ccc3n2)cc1 [Example 32, N-(6-chloroimidazo[1,2-a]pyridin-2-yl)-4-(3-cyano-1,1-dimethylpropyl)benzamide] | 198 to 199 °C
CC(C)(C)c1ccc(C(=O)Nc2cn3nc(N)ccc3n2)cc1 [Example 148, N-(6-aminoimidazo[1,2-b]pyridazin-2-yl)-4-tert-butylbenzamide] | 267 to 268 °C
CC(C)(C)c1ccc(C(=O)Nc2cn3nc(NCc4ccccn4)ccc3n2)cc1 [Example 161, 4-tert-butyl-N-{6-[(pyridin-2-ylmethyl)amino]imidazo[1,2-b]pyridazin-2-yl}benzamide] | 196 to 197 °C
CC(C)(C)c1ccc(C(=O)Nc2cn3cc(-c4ccc[nH]4)ccc3n2)cc1 [Example 62] | 279 to 280 °C
CC(C)(C)c1ccc(C(=O)Nc2cn3cc(-c4cccs4)ccc3n2)cc1 [Example 107, 4-tert-butyl-N-[6-(2-thienyl)imidazo[1,2-a]pyridin-2-yl]benzamide] | 273 to 275 °C
CC(C)(CO)c1ccc(C(=O)Nc2cn3cc(Cl)ccc3n2)cc1 [Example 90, N-[6-chloroimidazo[1,2-a]pyridin-2-yl]-4-(2-hydroxy-1,1-dimethylethyl)benzamide] | 240 to 242 °C
CCOC(=O)CCC(C)(C)c1ccc(C(=O)Nc2cn3cc(C)ccc3n2)cc1 [Example 21, ethyl 4-methyl-4-{4-[(6-methylimidazo[1,2-a]pyridin-2-yl)carbamoyl]phenyl}pentanoate] | 152 to 154 °C

SMILES | melting point
CC(C)(CCO)c1ccc(C(=O)Nc2cn3cc(Cl)ccc3n2)cc1 [Example 467, N-(6-chloroimidazo[1,2-a]pyridin-2-yl)-4-(3-hydroxy-1,1-dimethylpropyl)benzamide] | 182 to 184 °C
CC(C)(C)c1ccc(C(=O)Nc2cn3cc(-c4ccncc4)ccc3n2)cc1 [Example 59, 4-tert-butyl-N-[6-(pyridin-4-yl)imidazo[1,2-a]pyridin-2-yl]benzamide] | 293 to 294 °C
Cn1cc(-c2ccc3nc(NC(=O)c4ccc(C(C)(C)C)cc4)cn3n2)cn1 [Example 173, 4-tert-butyl-N-[6-(1-methyl-1H-pyrazol-4-yl)imidazo[1,2-b]pyridazin-2-yl]benzamide] | 245 to 246 °C
CC(C)(C)c1ccc(C(=O)Nc2cn3nc(NCCc4ccncc4)ccc3n2)cc1 [Example 162, 4-tert-butyl-N-{6-[(2-pyridin-4-ylethyl)amino]imidazo[1,2-b]pyridazin-2-yl}benzamide] | 279 °C
Cn1cc(-c2ccc3nc(NC(=O)c4ccc(C(C)(C)C)nc4)cn3n2)cn1 [Example 176, 6-tert-butyl-N-[6-(1-methyl-1H-pyrazol-4-yl)imidazo[1,2-b]pyridazin-2-yl]nicotinamide] | 251 to 252 °C
Cc1ccc2nc(NC(=O)c3ccc(C(C)(C)C(=O)O)cc3)cn2c1 [Example 20] | 275 to 277 °C
CN(C)c1ccc2nc(NC(=O)c3ccc(C(C)(C)C)cc3)cn2n1.Cl | 259 to 260 °C
COC(=O)C(C)(C)c1ccc(C(=O)Nc2cn3cc(-c4ccoc4)ccc3n2)cc1 [Example 26, methyl 2-methyl-2-(4-{[6-(3-furyl)imidazo[1,2-a]pyridin-2-yl]carbamoyl}phenyl)propanoate] | 202 to 203 °C
CC(C)(C)c1ccc(C(=O)Nc2cn3nc(NCCc4cccnc4)ccc3n2)cc1 [Example 163, 4-tert-butyl-N-{6-[(2-pyridin-3-ylethyl)amino]imidazo[1,2-b]pyridazin-2-yl}benzamide] | 231 °C
CC(C)(CNC(=O)Cc1cnc[nH]1)c1ccc(C(=O)Nc2cn3cc(Cl)ccc3n2)cc1 [Example 451, N-(6-chloroimidazo[1,2-a]pyridin-2-yl)-4-{2-[(1H-imidazol-5-ylacetyl)amino]-1,1-dimethylethyl}benzamide] | 270 °C (dec.)
CN(C)Cc1ccc2nc(NC(=O)c3ccc(C(C)(C)C)cc3)cn2c1 [Example 80, 4-tert-butyl-N-[6-(dimethylaminomethyl)imidazo[1,2-a]pyridin-2-yl]benzamide] | 236 to 237 °C
CS(=O)(=O)Nc1ccc(C(=O)Nc2cn3cc(Cl)ccc3n2)cc1 [Example 110, N-(6-chloroimidazo[1,2-a]pyridin-2-yl)-4-[(methylsulfonyl)amino]benzamide] | 293 to 295 °C
CC(C)(C(=O)O)c1ccc(C(=O)Nc2cn3cc(-c4ccsc4)ccc3n2)cc1 [Example 25, 2-methyl-2-(4-{[6-(3-thienyl)imidazo[1,2-a]pyridin-2-yl]carbamoyl}phenyl)propanoic acid] | 304 to 306 °C
CN1CCC(Nc2ccc3nc(NC(=O)c4ccc(C(C)(C)C)cc4)cn3n2)CC1 [Example 168, 4-tert-butyl-N-{6-[(1-methylpiperidin-4-yl)amino]imidazo[1,2-b]pyridazin-2-yl}benzamide] | 275 to 277 °C
CC(C)(CCO)c1ccc(C(=O)Nc2cn3cc(C(F)(F)F)ccc3n2)cc1 [Example 459, 4-(3-hydroxy-1,1-dimethylpropyl)-N-[6-(trifluoromethyl)imidazo[1,2-a]pyridin-2-yl]benzamide] | 152 to 153 °C
CC(C)(CC(=O)O)c1ccc(C(=O)Nc2cn3cc(Cl)ccc3n2)cc1 [Example 117, 3-(4-{[(6-chloroimidazo[1,2-a]pyridin-2-yl)amino]carbonyl}phenyl)-3-methylbutanoic acid] | 304 to 306 °C (dec.)
CC(C)(C)c1ccc(C(=O)Nc2cn3c4c(ccc3n2)OCC4)cn1 (as salt: hydrochloride) [Example 18, 6-tert-butyl-N-(1,2-dihydrofuro[2,3-e]imidazo[1,2-a]pyridin-7-yl)nicotinamide dihydrochloride] | 199 to 200 °C
CCCNCC(C)(C)c1ccc(C(=O)Nc2cn3cc(-n4ccnc4)ccc3n2)cc1 [Example 136, 4-[1,1-dimethyl-2-(propylamino)ethyl]-N-[6-(1H-imidazol-1-yl)imidazo[1,2-a]pyridin-2-yl]benzamide] | 162 to 164 °C
CC(C)(C#N)c1ccc(C(=O)Nc2cn3cc(C(F)(F)F)ccc3n2)cc1 [Example 455, 4-(1-cyano-1-methylethyl)-N-[6-(trifluoromethyl)imidazo[1,2-a]pyridin-2-yl]benzamide] | 230 to 231 °C
Cn1cc(-c2ccc3nc(NC(=O)c4ccc(C(C)(C)CO)cc4)cn3c2)cn1 [Example 462, 4-(2-hydroxy-1,1-dimethylethyl)-N-[6-(1-methyl-1H-pyrazol-4-yl)imidazo[1,2-a]pyridin-2-yl]benzamide] | 275 to 277 °C
